Results as given in ChEMBL document CHEMBL4334427 (Medchemcomm, 2019).

How the values were obtained:
[1] = target: T1, 4-hydroxy-tetrahydrodipicolinate synthase (Escherichia coli K-12, UniProt P0A6L2); experiment: Inhibition of Escherichia coli dihydrodipicolinate synthase assessed as inhibitory dissociation constant using ASA as substrate
T1 sequence (P0A6L2 whole entry): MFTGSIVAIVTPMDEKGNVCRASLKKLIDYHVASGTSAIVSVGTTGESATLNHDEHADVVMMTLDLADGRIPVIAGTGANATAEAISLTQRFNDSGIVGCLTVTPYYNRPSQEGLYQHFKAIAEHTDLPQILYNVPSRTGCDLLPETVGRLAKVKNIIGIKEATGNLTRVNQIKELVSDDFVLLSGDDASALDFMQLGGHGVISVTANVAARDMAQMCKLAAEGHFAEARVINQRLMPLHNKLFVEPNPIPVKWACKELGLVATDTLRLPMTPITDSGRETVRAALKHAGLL

[2] = target: T1, 4-hydroxy-tetrahydrodipicolinate synthase; experiment: (§1) Inhibition of Escherichia coli dihydrodipicolinate synthase
[3] = target: T2, 4-hydroxy-tetrahydrodipicolinate synthase (Escherichia coli K-12) (UniProt P0A6L2); experiment: Uncompetitive inhibition of Escherichia coli dihydrodipicolinate synthase using DL-ASA as substrate
T2 sequence (whole entry): T1 sequence (P0A6L2 whole entry)

[4] = target: T2, 4-hydroxy-tetrahydrodipicolinate synthase (Escherichia coli K-12); experiment: Competitive inhibition of Escherichia coli dihydrodipicolinate synthase using pyruvate as substrate
[5] = target: T2, 4-hydroxy-tetrahydrodipicolinate synthase (Escherichia coli K-12); experiment: Inhibition of Escherichia coli dihydrodipicolinate synthase at 1.2 mM relative to control
[6] = target: T1, 4-hydroxy-tetrahydrodipicolinate synthase; experiment: Reversible competitive inhibition of Escherichia coli dihydrodipicolinate synthase
[7] = Inhibition of Campylobacter jejuni dihydrodipicolinate synthase
[8] = Reversible inhibition of Campylobacter jejuni dihydrodipicolinate synthase
[9] = Reversible competitive inhibition of Bacillus subtilis PCI-219 dihydrodipicolinate synthase using DL-ASA as substrate after 10 mins by double reciprocal plot analysis
[10] = Reversible competitive inhibition of Bacillus subtilis PCI-219 dihydrodipicolinate synthase using pyruvate as substrate after 10 mins by double reciprocal plot analysis
[11] = target: 4-hydroxy-tetrahydrodipicolinate synthase (Mycobacterium tuberculosis, UniProt P9WP25); experiment: Reversible inhibition of recombinant N-terminal His-6 tagged Mycobacterium tuberculosis dihydrodipicolinate synthase using (S)-ASA as substrate preincubated for 5 mins followed by substrate addition measured over 10 mins by spectrophotometric analysis
[12] = target: T2, 4-hydroxy-tetrahydrodipicolinate synthase (Escherichia coli K-12); experiment: as §1
[13] = target: T2, 4-hydroxy-tetrahydrodipicolinate synthase (Escherichia coli K-12); experiment: Uncompetitive inhibition of Escherichia coli dihydrodipicolinate synthase using pyruvate as substrate
[14] = target: T2, 4-hydroxy-tetrahydrodipicolinate synthase (Escherichia coli K-12); experiment: Competitive inhibition of Escherichia coli dihydrodipicolinate synthase using DL-ASA as substrate
[15] = target: T2, 4-hydroxy-tetrahydrodipicolinate synthase (Escherichia coli K-12); experiment: Inhibition of Escherichia coli dihydrodipicolinate synthase at 4.6 mM relative to control
[16] = target: T2, 4-hydroxy-tetrahydrodipicolinate synthase (Escherichia coli K-12); experiment: Competitive inhibition of Escherichia coli dihydrodipicolinate synthase using ASA as substrate
[17] = target: 4-hydroxy-tetrahydrodipicolinate synthase (Mycobacterium tuberculosis) (UniProt P9WP25); experiment: Inhibition of recombinant N-terminal His-6 tagged Mycobacterium tuberculosis dihydrodipicolinate synthase using (S)-ASA as substrate preincubated for 5 mins followed by substrate addition measured over 10 mins by spectrophotometric analysis relative to control
[18] = target: T1, 4-hydroxy-tetrahydrodipicolinate synthase; experiment: Reversible inhibition of Escherichia coli dihydrodipicolinate synthase using ASA as substrate
[19] = target: T1, 4-hydroxy-tetrahydrodipicolinate synthase; experiment: Reversible inhibition of Escherichia coli dihydrodipicolinate synthase using pyruvate as substrate
[20] = target: T2, 4-hydroxy-tetrahydrodipicolinate synthase (Escherichia coli K-12); experiment: Inhibition of Escherichia coli dihydrodipicolinate synthase at 1 mM relative to control

Chain of 4-hydroxy-tetrahydrodipicolinate synthase (Mycobacterium tuberculosis) (P9WP25 whole entry): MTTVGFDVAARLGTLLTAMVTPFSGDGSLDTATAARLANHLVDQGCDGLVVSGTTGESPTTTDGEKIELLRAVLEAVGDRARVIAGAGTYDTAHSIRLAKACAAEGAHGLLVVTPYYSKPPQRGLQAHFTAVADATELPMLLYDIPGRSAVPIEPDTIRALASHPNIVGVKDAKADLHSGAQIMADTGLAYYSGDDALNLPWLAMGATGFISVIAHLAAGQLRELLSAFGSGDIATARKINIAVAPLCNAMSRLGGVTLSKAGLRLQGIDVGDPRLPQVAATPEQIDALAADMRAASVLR
Chain of 4-hydroxy-tetrahydrodipicolinate synthase (Mycobacterium tuberculosis, UniProt P9WP25) (P9WP25 whole entry): as above

## N[C@@H](CCC(=O)O)C(=O)O [GLUTAMIC ACID]
[1]
  Ki: 9000 to 24000 µM

## N#Cc1cccc(C#N)n1
[2]
  IC50: 300 µM

## CCCC(=O)C(=O)O
[3]
  Kii: 1.6 mM
[4]
  Kis: 0.7 mM

## O=CC(=O)O
[3]
  Kii: 0.028 mM
[4]
  Kis: 0.016 mM

## COC(=O)c1cccc(C(=O)OC)n1
[2]
  IC50: 700 µM

## O=C(O)c1cccc(C(=O)O)n1 [DIPICOLINIC ACID]
[2]
  Ki: 11000 µM
[5]
  inhibition: 50%
[6]
  IC50: 400 µM

## NCCCC[C@@](N)(CC[C@](N)(CCCCN)C(=O)O)C(=O)O
[7]; read-out: IC50
  IC50: 0.3 µM
[8]
  Ki: 0.14 µM

## COC(=N)c1cccc(C(=N)OC)n1
[2]
  IC50: 200 µM

## c1cc(-c2nnn[nH]2)nc(-c2nnn[nH]2)c1
[2]
  IC50: 250 µM

## NC1CCCC1=O (stereo unspecified)
[1]
  Ki: 12000 to 24000 µM

## O=C(O)CCCCC(=O)C(=O)O
[9]
  Ki: 220 µM
[10]
  Ki: 160 µM
[11]
  Ki: 33 µM

## O=C(O)c1cccc(C(=O)O)c1 [ISOPHTHALIC ACID]
[2]
  Ki: 5400 to 5600 µM

## CC(=O)C(=O)O
[12]
  Kic: 54 µM
  Kiuc: 12 µM

## O=C(O)C1=CCCC(C(=O)O)C1 (stereo unspecified)
[2]
  IC50: 15000 µM

## O=NN1CCC[C@H]1C(=O)O
[2]
  IC50: 7500 µM

## NCCSC[C@H](N)C(=O)O
[13]
  Kii: 1.9 mM
[14]
  Kis: 2.4 mM
[15]
  inhibition: 50%
[3]
  Kii: 4.7 mM

## O=NN1CCCCC1C(=O)O (racemic)
[2]
  IC50: 3500 µM

## O=CCCC(=O)O
[16]
  Kis: 44 µM

## O=C(O)CCCCC(O)C(=O)O (stereo unspecified)
[17]
  inhibition: 74%

## N[C@@H](CC=O)C(=O)O
[12]
  Kic: 31 µM
  Kiuc: 26 µM

## N[C@@H](CC(=O)O)C(=O)O [ASPARTIC ACID]
[1]
  Ki: 21000 to 39000 µM
[18]
  Ki: 90 to 140 µM

## CCC(=O)C(=O)O
[3]
  Kis: 1.3 mM
[4]
  Kis: 0.83 mM

## O=C(O)c1cccc(C(=O)O)[n+]1[O-]
[2]
  IC50: 200 µM

## N[C@H]1CCOC1=O [HOMOSERINE LACTONE]
[19]
  Ki: 8000 to 15000 µM
[18]
  Ki: 12000 to 22000 µM

## O=C(O)C(=O)CF
[14]
  Kis: 2 mM
[4]
  Kis: 0.22 mM

## NCCCC[C@H](N)C(=O)O [LYSINE]
[2]
  IC50: 180 µM
[7]; read-out: IC50(app)
  IC50: 65 µM
[14]
  Kis: 0.2 mM
[20]
  inhibition: 50%

## O=C(O)C(=O)CBr [BROMOPYRUVATE]
[19]
  Ki: 160 µM
